Key:
duration of immobility = test system: duration of immobility; set-up: method as in PMID 26719283; details: mice; short- and long-term administration; cited from earlier work
hypothalamic 5-HT levels = assay: In vivo microdialysis, extracellular 5-HT; set-up: species or system rats
Description: The effect of albiflorin on extracellular monoamine levels in […] was determined using methods previously described. Microdialysis probes (CMA Microdialysis) with an active membrane surface of 2 mm were perfused with artificial cerebrospinal fluid (125 mM NaCl, 3 mM KCl, 0.75 mM MgSO4 and 1.2 mM CaCl2, pH 7.4) in situ for at least 18 h before experimentation. The microdialysis probe was then implanted via the guide cannula into the hypothalamus and perfused with artificial cerebral spinal fluid at a flow rate of 1 μL/min. A 3-h stabilisation period was allowed after probe implantation, and dialysate sampling was conducted according to previously described methods. […] All subsequent values were expressed as a percentage of the mean preinjection value (i.e., percentage of baseline). […] For a minimum of 3 h after albiflorin administration, dialysis samples were collected every 20 min and analysed to determine the levels of NE, 5-HT and DA. […] A 20-μL sample from the hypothalamus was analysed for 5-HT, NE and DA content using methods described previously. […] External standard curves were used to quantify the amounts of NE, 5-HT and DA in each sample, which was calculated using the area under the curve.
All data for inhibition curves were analysed by nonlinear regression using Prism software (GraphPad Software Inc., San Diego, CA) to determine IC50 values. […]

α2A = α2A (Rattus norvegicus, UniProt P22909); assay: CNS receptor binding, NE receptor α2A; details: Rat Cortex, [3H]-clonidine(2)
Description: (§1) Albiflorin (10 μM) was tested for numerous other potential binding targets by using standard receptor binding procedures. The tested targets included the following receptors: D1, D2, D3, D4, D5, 5-HT1A, 5-HT1B, 5-HT1D, 5-HT2a, 5-HT2C, 5-HT3, 5-HT5A, 5-HT6, 5-HT7, α1A, α1B, α2A, β1, M1, M2, M3, M4, M5, μ, κ, δ, A1, A2A, H1, H2, H3, H4.

5-HT1A = 5-HT1A (Homo sapiens, UniProt P08908); assay: CNS receptor binding, 5-HT1A; details: HEK293 cell line, [3H]-8-OH-DPAT(2)
Description: as §1

5-HT2a = 5-HT2a (Homo sapiens, UniProt P28223); assay: CNS receptor binding, 5-HT2a; details: HEK293 cell line, [3H]-ketanserin(1)
Description: as §1

sucrose consumption = test system: sucrose consumption; set-up: method as in PMID 26719283; details: rats; chronic unpredicted mild stress; cited from earlier work
α1A = α1A (Rattus norvegicus, UniProt P43140); assay: CNS receptor binding, NE receptor α1A; details: Rat Frontal cortex, [3H]-parzosin(1)
Description: as §1

D4 = target: T1, D4 (Homo sapiens, UniProt P21917); assay: CNS receptor binding, dopamine D4; details: HEK293 cell line, [3H]-spiperone(1)
T1 construct: expressed in transfected cells; host or cells: HEK293 cell line
Description: as §1

hNET = target: T2, hNET (Homo sapiens, UniProt P23975); assay: [3H]-NE uptake in transporter-transfected HEK293 cells; format: cell-based; details: HEK293 cell line, read-out: IC50 values, uptake of [3H]-NE (NET)
T2 construct: expressed in transfected cells
Description: The uptake of 5-HT, NE and DA into HEK293 cells stably expressing human transporters was determined using methods previously described with slight modifications. Briefly, the culture medium was removed from cells, and the cells were washed once with phosphate-buffered saline. Krebs-Ringers-HEPES (KRH) assay buffer (100 μL/well, containing 120 mM NaCl, 4.7 mM KCl, 2.2 mM CaCl2, 1.2 mM MgSO4, 1.2 mM […], 10 mM HEPES, pH 7.4) was then added. Various concentrations of drugs were administered to cells in a 24-well plate. The uptake was initiated by the addition of [^3H]-5-HT (50 nM), [^3H]-NE (80 nM), or [^3H]-DA (50 nM). Uptake was terminated by five washes using cold KRH assay buffer after 10-min incubation at 37 °C. The cells were solubilised using 400 μL of scintillation fluid and counted using a Packard Top Count scintillation counter.
All data for inhibition curves were analysed by nonlinear regression using Prism software (GraphPad Software Inc., San Diego, CA) to determine IC50 values. For the microdialysis experiments, two-way repeated-measures ANOVA followed by Tukey’s test was used to compare the percentage increase over baseline between groups, time and treatment as independent factors, and time as the repeated factor.

5-HT1B = 5-HT1B (Homo sapiens, UniProt P28222); assay: CNS receptor binding, 5-HT1B; details: HEK293 cell line, [3H]-LSD(6)
Description: as §1

H1 = H1 (Homo sapiens, UniProt P35367); assay: CNS receptor binding, histamine H1; details: CHO cell line, [3H]-pyrilamine(2)
Description: as §1

5-HT7 = 5-HT7 (Homo sapiens, UniProt P34969); assay: CNS receptor binding, 5-HT7; details: HEK293 cell line, [3H]-LSD(4)
Description: as §1

[1] = read-out: IC50 values for albiflorin

Chain of 5-HT2a (P28223 whole entry): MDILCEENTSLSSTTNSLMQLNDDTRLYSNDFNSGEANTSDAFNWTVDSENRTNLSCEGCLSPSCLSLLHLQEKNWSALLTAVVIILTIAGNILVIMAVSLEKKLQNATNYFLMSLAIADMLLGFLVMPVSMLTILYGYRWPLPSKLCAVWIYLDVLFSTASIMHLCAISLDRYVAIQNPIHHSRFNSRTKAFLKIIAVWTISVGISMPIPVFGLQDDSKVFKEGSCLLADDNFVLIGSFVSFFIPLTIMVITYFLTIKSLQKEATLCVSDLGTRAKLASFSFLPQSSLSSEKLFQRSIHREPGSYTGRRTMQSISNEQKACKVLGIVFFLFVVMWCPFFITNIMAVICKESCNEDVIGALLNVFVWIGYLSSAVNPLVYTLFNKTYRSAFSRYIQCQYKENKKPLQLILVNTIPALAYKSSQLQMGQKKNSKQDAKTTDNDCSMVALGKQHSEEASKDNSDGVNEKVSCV
Chain of 5-HT1A (P08908 whole entry): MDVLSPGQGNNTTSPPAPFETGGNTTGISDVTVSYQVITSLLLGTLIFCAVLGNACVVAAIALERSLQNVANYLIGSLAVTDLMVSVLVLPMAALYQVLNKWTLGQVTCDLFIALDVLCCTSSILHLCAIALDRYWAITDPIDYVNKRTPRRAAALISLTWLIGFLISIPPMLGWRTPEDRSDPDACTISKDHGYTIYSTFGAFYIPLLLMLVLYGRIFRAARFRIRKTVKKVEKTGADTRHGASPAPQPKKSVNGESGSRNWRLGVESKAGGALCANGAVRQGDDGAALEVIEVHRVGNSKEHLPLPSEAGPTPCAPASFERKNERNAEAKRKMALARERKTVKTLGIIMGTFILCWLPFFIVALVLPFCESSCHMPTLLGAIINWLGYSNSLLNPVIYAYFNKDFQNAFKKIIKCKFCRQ
Chain of α1A (P43140 whole entry): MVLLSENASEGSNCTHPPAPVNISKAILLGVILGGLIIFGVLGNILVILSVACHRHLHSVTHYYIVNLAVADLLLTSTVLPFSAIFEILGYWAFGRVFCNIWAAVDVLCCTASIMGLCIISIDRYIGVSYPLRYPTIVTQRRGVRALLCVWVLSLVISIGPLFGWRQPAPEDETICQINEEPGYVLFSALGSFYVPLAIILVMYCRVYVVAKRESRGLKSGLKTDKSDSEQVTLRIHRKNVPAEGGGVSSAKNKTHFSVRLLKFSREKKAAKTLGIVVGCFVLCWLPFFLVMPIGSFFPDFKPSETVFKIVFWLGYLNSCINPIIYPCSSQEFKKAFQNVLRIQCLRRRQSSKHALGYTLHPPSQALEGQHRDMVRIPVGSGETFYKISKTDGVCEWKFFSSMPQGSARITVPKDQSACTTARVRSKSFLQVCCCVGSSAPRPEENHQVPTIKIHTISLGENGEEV
T1 sequence (P21917 whole entry): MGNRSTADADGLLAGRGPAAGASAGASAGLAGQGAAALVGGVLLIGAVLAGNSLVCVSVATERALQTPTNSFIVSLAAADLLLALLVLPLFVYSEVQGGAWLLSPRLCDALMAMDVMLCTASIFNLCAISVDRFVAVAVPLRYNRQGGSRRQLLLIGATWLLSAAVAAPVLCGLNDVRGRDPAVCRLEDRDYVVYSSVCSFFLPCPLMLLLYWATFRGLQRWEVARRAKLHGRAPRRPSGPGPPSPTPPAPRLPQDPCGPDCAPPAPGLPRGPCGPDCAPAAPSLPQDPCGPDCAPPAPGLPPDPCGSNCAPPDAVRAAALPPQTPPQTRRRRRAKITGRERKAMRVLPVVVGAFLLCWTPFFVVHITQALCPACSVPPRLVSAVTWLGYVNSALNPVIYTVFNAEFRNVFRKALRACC
Chain of α2A (P22909 whole entry): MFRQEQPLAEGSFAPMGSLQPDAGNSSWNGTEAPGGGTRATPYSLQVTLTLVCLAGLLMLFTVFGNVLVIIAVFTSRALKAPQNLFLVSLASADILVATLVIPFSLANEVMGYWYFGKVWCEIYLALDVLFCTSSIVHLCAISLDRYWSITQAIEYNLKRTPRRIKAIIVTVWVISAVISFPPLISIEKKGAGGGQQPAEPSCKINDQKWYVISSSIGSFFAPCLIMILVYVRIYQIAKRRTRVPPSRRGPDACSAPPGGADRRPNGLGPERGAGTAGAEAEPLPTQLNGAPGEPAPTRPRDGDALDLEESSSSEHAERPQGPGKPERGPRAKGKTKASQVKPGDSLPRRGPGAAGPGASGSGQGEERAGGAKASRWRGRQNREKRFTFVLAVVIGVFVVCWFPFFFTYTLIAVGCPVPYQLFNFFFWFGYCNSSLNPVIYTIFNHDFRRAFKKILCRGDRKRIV
Chain of 5-HT7 (P34969 whole entry): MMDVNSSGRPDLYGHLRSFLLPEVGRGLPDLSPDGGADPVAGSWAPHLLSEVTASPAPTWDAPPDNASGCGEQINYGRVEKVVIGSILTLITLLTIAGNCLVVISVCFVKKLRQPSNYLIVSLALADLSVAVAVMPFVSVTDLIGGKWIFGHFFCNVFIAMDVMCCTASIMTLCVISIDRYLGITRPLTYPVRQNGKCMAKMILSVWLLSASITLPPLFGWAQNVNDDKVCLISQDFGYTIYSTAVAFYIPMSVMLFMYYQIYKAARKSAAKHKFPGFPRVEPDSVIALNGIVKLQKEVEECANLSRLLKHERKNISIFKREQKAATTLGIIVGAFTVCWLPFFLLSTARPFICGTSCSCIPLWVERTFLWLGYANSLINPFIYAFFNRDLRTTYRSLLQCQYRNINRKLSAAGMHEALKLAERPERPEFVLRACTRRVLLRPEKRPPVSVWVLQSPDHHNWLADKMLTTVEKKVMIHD
Chain of 5-HT1B (P28222 whole entry): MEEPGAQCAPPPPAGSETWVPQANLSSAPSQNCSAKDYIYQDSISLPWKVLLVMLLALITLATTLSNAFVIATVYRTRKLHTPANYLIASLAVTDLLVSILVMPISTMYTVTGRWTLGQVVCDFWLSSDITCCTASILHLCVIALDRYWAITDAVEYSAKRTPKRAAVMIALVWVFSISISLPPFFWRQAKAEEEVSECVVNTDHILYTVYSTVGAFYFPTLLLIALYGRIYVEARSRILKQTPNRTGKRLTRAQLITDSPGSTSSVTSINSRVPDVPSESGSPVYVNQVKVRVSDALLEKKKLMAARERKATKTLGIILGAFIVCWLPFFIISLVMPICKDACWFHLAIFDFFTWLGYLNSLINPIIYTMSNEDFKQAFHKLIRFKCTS
Chain of H1 (P35367 whole entry): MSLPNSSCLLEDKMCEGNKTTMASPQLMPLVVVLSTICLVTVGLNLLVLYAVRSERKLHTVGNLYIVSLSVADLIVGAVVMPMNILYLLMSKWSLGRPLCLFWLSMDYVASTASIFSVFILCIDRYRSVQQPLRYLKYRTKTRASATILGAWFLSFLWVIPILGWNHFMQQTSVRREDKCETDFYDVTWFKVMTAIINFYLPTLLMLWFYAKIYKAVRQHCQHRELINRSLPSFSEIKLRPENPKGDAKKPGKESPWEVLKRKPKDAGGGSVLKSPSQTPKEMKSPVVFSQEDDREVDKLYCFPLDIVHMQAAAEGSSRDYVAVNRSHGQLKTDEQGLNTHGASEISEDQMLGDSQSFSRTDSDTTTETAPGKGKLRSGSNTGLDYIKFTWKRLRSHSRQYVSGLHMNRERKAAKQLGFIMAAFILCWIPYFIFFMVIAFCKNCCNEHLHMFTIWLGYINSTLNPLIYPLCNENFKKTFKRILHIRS
T2 sequence (P23975 whole entry): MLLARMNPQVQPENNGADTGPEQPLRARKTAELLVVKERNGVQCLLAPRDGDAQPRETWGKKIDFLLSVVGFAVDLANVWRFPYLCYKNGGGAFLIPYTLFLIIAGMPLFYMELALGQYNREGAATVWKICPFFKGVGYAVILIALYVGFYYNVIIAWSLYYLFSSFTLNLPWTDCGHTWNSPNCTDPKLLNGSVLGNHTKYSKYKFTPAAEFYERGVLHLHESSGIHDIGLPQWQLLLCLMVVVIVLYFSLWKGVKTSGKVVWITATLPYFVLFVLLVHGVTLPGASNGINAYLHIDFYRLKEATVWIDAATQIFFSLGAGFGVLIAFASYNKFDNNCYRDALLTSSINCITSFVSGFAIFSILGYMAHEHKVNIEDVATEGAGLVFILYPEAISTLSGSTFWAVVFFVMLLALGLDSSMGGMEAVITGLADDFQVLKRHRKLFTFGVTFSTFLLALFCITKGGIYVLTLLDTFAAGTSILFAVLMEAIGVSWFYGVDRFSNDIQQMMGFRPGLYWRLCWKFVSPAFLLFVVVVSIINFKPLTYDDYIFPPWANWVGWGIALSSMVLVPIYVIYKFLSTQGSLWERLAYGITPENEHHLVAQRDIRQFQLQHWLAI

For `C[C@]12C[C@@H](O)[C@@H]3C[C@@]1(O[C@@H]1O[C@H](CO)[C@@H](O)[C@H](O)[C@H]1O)[C@@]3(COC(=O)c1ccccc1)C(=O)O2` [albiflorin, Albiflorin], the “antidepressant-like effect, forced-swim test” value (duration of immobility) is given as “decreases in the duration of immobility”, the “effect on hypothalamic 5-HT levels” value (hypothalamic 5-HT levels; acute oral administration, 3.5, 7.0, 14.0 mg/kg, freely moving rats, vs vehicle) is given as “significant increase” and the “time of peak 5-HT increase post administration” value (hypothalamic 5-HT levels; oral, rats, microdialysis) is given as 1 h. For the same compound, the “% Inhibition of binding at 10 μM albiflorin” value (shortened to “% Inhibition of binding”) (α2A) was 36.66%, the IC50 (α2A; [1]) was over 10 µM and the “% Inhibition of binding” value (5-HT1A) was 69.60%. The IC50 (5-HT1A; [1]) was 4 ± 0.662 µM, the “% Inhibition of binding” value (5-HT2a) was 55.36% and the IC50 (5-HT2a; [1]) was 4 ± 0.113 µM. For the same compound, the “antidepressant-like effect, sucrose consumption” value (sucrose consumption) was “reversal of chronic unpredicted mild stress-induced inhibition of sucrose consumption”, the “% Inhibition of binding” value (α1A) was 56.33% and the IC50 (α1A; [1]) was 4.71 ± 0.113 µM. The “% Inhibition of binding” value (D4) was 19.50%, the IC50 (D4; [1]) was over 10 µM and the IC50 (hNET) was 0.00036 ± 8e-05 µM. The “% Inhibition of binding” value (5-HT1B) was 16.60%, the IC50 (5-HT1B; [1]) was over 10 µM and the “% Inhibition of binding” value (H1) was 6.33%. The IC50 (H1; [1]) was over 10 µM, the “% Inhibition of binding” value (5-HT7) was 14.55% and the IC50 (5-HT7; [1]) was over 10 µM.
